Experimental data reported in article PMC9284491 (Nature Communications, 2022).
Entries after “also recorded” stand apart in the source; their conditions may differ. Like-named read-outs stand apart in the source and are kept apart here.

What was measured:
Format in all cases: in vivo, human
[1] = 24 h urine fraction, renal elimination of amcenestrant; conditions: Part B, QD administration
[2] = system: ER+/HER2− advanced breast cancer; assay: Antitumor activity per RECIST v1.1 (ORR, CBR, best overall response); conditions: Part A, local review, n = 16
[3] = Amcenestrant plasma pharmacokinetics (LC-MS/MS, non-compartmental analysis); conditions: for AUC(0-t) / Cmax / Tmax: human, plasma, oral
Procedure: To evaluate pharmacokinetics in Part A, venous blood samples were collected pre-dose and at regular intervals on cycle 1, day 1 (up to 48 h), on day 3 (up to 24 h), and on day 22 (up to 24 h). […] The validated range was 5 ng/mL to 5000 ng/mL.
In Part B, venous blood samples were collected pre-dose and at regular intervals on cycle 1, day 1 (up to 24 h), and on day 22 (up to 24 h).
NCA was performed using Phoenix® software.

[4] = Part A, repeated QD, Cycle 1 Day 22, fasting, 20 mg, N 3
[5] = Part A, repeated QD, Cycle 1 Day 22, fasting, 150 mg, N 2
[6] = Part A, repeated QD, Cycle 1 Day 22, fasting, 200 mg, N 3
[7] = Part A, repeated QD, Cycle 1 Day 22, fasting, 400 mg, N 3
[8] = Part A, repeated QD, Cycle 1 Day 22, fasting, 600 mg, N 3
[9] = Part B, 400 mg QD, Day 22, N 13

With `O=C(O)c1ccc2c(c1)CCCC(c1ccc(Cl)cc1Cl)=C2c1ccc(O[C@H]2CCN(CCCF)C2)cc1` [amcenestrant, 6-(2,4-Dichlorophenyl)−5-[4-[(3S)−1-(3-fluoropropyl)pyrrolidin-3-yl]oxyphenyl]−8,9-dihydro-7H-benzo[7]annulene-2-carboxylic acid] the “amcenestrant excreted in urine over the 24-h interval” value [1] was < 0.1 % of the administered dose, the “objective response rate (ORR)” value [2] was 6.3% and the “stable disease (SD), patients” value [2] was 50%. The “total variability of exposure” value ([3]; 400 mg dose) was under 40%, the “dose proportionality of exposure” value ([3]; 20–600 mg QD, single or multiple administrations) was “did not deviate significantly from dose proportionality; also recorded: exposure increased proportionally with doses up to 600 mg” and the “accumulation on day 22” value ([3]; Part A, doses ≥400 mg QD) was “No accumulation was observed”. For the same molecule, the “delay of median tmax by food” value ([3]; Part A, moderate fat breakfast) was “≈ 1 h”, the “food effect on exposure” value ([3]; Part A, moderate fat breakfast) was “modestly increased exposure” and the “CLss/F, Geometric mean (CV%)” value [3, 4] was 14.8 (75.8) L/h. For the same molecule, the “CLss/F, Mean ± SD” value [3, 4] was 18.0 ± 13.7 L/h, the “Ctrough, Mean ± SD” value [3, 4] was 12.6 ± 13.6 ng/mL and the “CLss/F, Geometric mean (CV%)” value [3, 5] was 9.99 (46.3) L/h. For the same molecule, the “CLss/F, Mean ± SD” value [3, 5] was 10.6 ± 4.89 L/h, the “Ctrough, Geometric mean (CV%)” value [3, 5] was 134 (15.7) ng/mL and the “Ctrough, Mean ± SD” value [3, 5] was 135 ± 21.2 ng/mL. For the same molecule, the “CLss/F, Geometric mean (CV%)” value [3, 6] was 14.9 (28.0) L/h, the “CLss/F, Mean ± SD” value [3, 6] was 15.3 ± 4.30 L/h and the “Ctrough, Geometric mean (CV%)” value [3, 6] was 115 (73.0) ng/mL. The “Ctrough, Mean ± SD” value [3, 6] was 140 ± 102 ng/mL, the “CLss/F, Geometric mean (CV%)” value [3, 7] was 13.5 (95.7) L/h and the “CLss/F, Mean ± SD” value [3, 7] was 18.1 ± 17.4 L/h. For the same molecule, the “Ctrough, Geometric mean (CV%)” value [3, 7] was 245 (79.3) ng/mL, the “Ctrough, Mean ± SD” value [3, 7] was 397 ± 315 ng/mL and the “CLss/F, Geometric mean (CV%)” value [3, 8] was 14.4 (26.9) L/h. For the same molecule, the “CLss/F, Mean ± SD” value [3, 8] was 14.7 ± 3.96 L/h, the “Cmax, Geometric mean (CV%)” value [3, 8] was 5510 (17.3) ng/mL and the “Ctrough, Geometric mean (CV%)” value [3, 8] was 350 (88.2) ng/mL. The “Ctrough, Mean ± SD” value [3, 8] was 449 ± 396 ng/mL, the “Cmax, Geometric mean (CV%)” value ([3]; Part B, 400 mg QD, Day 1, N 16) was 5460 (46.8) ng/mL and the “Tlag, Median” value ([3]; Part B, 400 mg QD, Day 1, N 16) was 0 h. For the same molecule, the “CLss/F, Geometric mean (CV%)” value [3, 9] was 9.90 (41.0) L/h, the “CLss/F, Mean ± SD” value [3, 9] was 10.6 ± 4.35 L/h and the “apparent total clearance from plasma at steady state (CLss/F)” value ([3]; Part B, 400 mg QD, day 22) was 10.6 L/h. For the same molecule, the “coefficient of variation for AUC0-24h” value ([3]; Part B, 400 mg QD, day 22) was 37.5%, the “coefficient of variation for Cmax” value ([3]; Part B, 400 mg QD, day 22) was 28.0% and the AUC(0-t) ([3]; 400 mg, Part B, 400 mg QD, Day 1, N 16, read-out: AUC0-24, Geometric mean (CV%)) was 44800 ng·h/mL. The AUC(0-t) ([3]; 400 mg, Part B, 400 mg QD, Day 1, N 16, read-out: AUC0-24, Mean ± SD) was 50900 ± 26000 ng·h/mL, the Cmax ([3]; 400 mg, Part B, 400 mg QD, Day 1, N 16, read-out: Cmax, Mean ± SD) was 6020 ± 2810 ng/mL and the AUC(0-t) ([3]; 400 mg, Part B, 400 mg QD, Day 22, N 13, read-out: AUC0-24, Mean ± SD) was 43200 ± 16200 ng·h/mL. It also gave a Cmax ([3]; 400 mg, Part B, 400 mg QD, Day 22, N 13, read-out: Cmax, Geometric mean (CV%)) of 4220 ng/mL, a Cmax ([3]; 400 mg, Part B, 400 mg QD, Day 22, N 13, read-out: Cmax, Mean ± SD) of 4380 ± 1230 ng/mL and a Tmax ([3]; Part A, single dose day 1, starting from the 150-mg dose, read-out: median time to maximum concentration [tmax]) of about 3 h. It also gave a Tmax ([3]; Part B, 400 mg QD, Day 1, N 16, read-out: tmax, Median) of 3.98 h.
